Reference: ChEMBL document CHEMBL1155145, “Calcineurin inhibition or mutation enhances cell wall inhibitors against Aspergillus fumigatus” (2007)
Activity calls are given as the source filed them. No cut-off for these calls is given here.

Assays:
[1] = test system: Aspergillus fumigatus; assay: Antifungal activity against Aspergillus fumigatus assessed as induction of balloon-like of hyphal apical tips at 32 ug/ml after 48 hrs; type: functional, organism-based
[2] = test system: Aspergillus fumigatus; assay: Decrease in 1,3-beta-D-glucan level in Aspergillus fumigatus assessed as relative fluorescence units at 1 ug/ml by aniline blue fluorescence assay; type: functional
[3] = test system: Aspergillus fumigatus; assay: Decrease in 1,3-beta-D-glucan level in Aspergillus fumigatus expressing delta-cnaA mutant assessed as relative fluorescence units at 1 ug/ml by aniline blue fluorescence assay; type: functional
[4] = test system: Aspergillus fumigatus; assay: Antifungal activity against Aspergillus fumigatus expressing delta-cnaA mutant assessed as dead microbial cells at 1 ug/ml by trimethine oxonol staining; type: functional
[5] = test system: Aspergillus fumigatus; assay: Antifungal activity against Aspergillus fumigatus assessed as inhibition of hyphal growth at 1 ug/ml by radial growth assay; type: functional, organism-based
[6] = test system: Aspergillus fumigatus; assay: Antifungal activity against Aspergillus fumigatus assessed as induction of stunted hyphal tips at 20 ng/ml after 6 hrs; type: functional, organism-based
[7] = test system: Aspergillus fumigatus; assay: Antifungal activity against Aspergillus fumigatus ungerminated conidia assessed as delay in germ-tube extension at 20 ng/ml after 60 hrs of fungal growth; type: functional, organism-based
[8] = test system: Aspergillus fumigatus; assay: Decrease in 1,3-beta-D-glucan level in Aspergillus fumigatus assessed as relative fluorescence units at 20 ng/ml by aniline blue fluorescence assay; type: functional
[9] = test system: Aspergillus fumigatus; assay: Effect on cellular morphology of Aspergillus fumigatus assessed as induction hyphal tips blunting at 20 ng/ml; type: functional, organism-based
[10] = test system: Aspergillus fumigatus; assay: Effect on cellular morphology of Aspergillus fumigatus expressing delta-cnaA mutant assessed as induction hyphal tips blunting at 20 ng/ml; type: functional, organism-based
[11] = test system: Aspergillus fumigatus; assay: Antifungal activity against Aspergillus fumigatus assessed as inhibition of hyphal growth at 20 ng/ml by radial growth assay; type: functional, organism-based

For `C[C@@H]([C@H](N)C(=O)N[C@H](C(=O)O)[C@H]1O[C@@H](n2ccc(=O)[nH]c2=O)[C@H](O)[C@@H]1O)[C@H](O)c1ccc(O)cn1`, the Activity [1] was “Active”.
In the case of `CC[C@H](C)C[C@H](C)CCCCCCCCC(=O)N[C@H]1C[C@@H](O)[C@@H](NCCN)NC(=O)[C@@H]2[C@@H](O)CCN2C(=O)[C@H]([C@H](O)CCN)NC(=O)[C@H]([C@H](O)[C@@H](O)c2ccc(O)cc2)NC(=O)[C@@H]2C[C@@H](O)CN2C(=O)[C@H]([C@@H](C)O)NC1=O` [CASPOFUNGIN], the RFU [2] is reported as 6.187, the RFU [3] is reported as 1.086 and the Activity [4] is reported as 15%. For the same compound, the Activity [5] was “Active”.
`C=CC[C@@H]1/C=C(\C)C[C@H](C)C[C@H](OC)[C@H]2O[C@@](O)(C(=O)C(=O)N3CCCC[C@H]3C(=O)O[C@H](/C(C)=C/[C@@H]3CC[C@@H](O)[C@H](OC)C3)[C@H](C)[C@@H](O)CC1=O)[C@H](C)C[C@@H]2OC` [TACROLIMUS ANHYDROUS] was tested, and the Activity [6] was “Dose-dependent effect”, the Activity [7] was “Dose-dependent effect” and the RFU [8] was 2.909. For the same compound, the Activity [9] was “Active”, the Activity [10] was “Active” and the Activity [11] was “Active”.
